Experimental data: article PMC12150283, “Synthesis of new Ag(I) and Cd(II) hydrozanomide-based complexes with antibacterial and anticancer properties” (RSC Advances, 2025)
Read-outs that look alike come from different tables or passages of the source.

Experiments:
[1] = tested on: Bacillus cereus ŁOCK 0807; test: MIC determination; assay type: cell-based; details: Bacillus cereus ŁOCK 0807; 18 h
Procedure: (§1) The antibacterial activity of tested samples was assessed against both gram-positive bacteria (Staphylococcus aureus ATCC 25923, Staphylococcus aureus ATCC 6538, Staphylococcus epidermidis ATCC 12228, Enterococcus faecalis ATCC 29212, Listeria monocytogenes ATCC 19115, Bacillus subtilis ATCC 6633, Bacillus cereus ATCC 10876) and gram-negative bacteria (Escherichia coli ATCC 10530, Salmonella typhimurium ATCC 14028). Antibacterial properties were evaluated using both the dilution method (employing DMSO and 96-well plates) and the diffusion-well method (using Mueller Hinton Agar, Merck, Germany).
(§2) The minimum inhibitory concentrations (MICs) of the tested samples were evaluated against a panel of reference microorganisms obtained from the American Type Culture Collection (ATCC), including Gram-negative bacteria (Escherichia coli ATCC 10530, Salmonella typhimurium ATCC 14028), and Gram-positive bacteria (Staphylococcus aureus ATCC 25923, Staphylococcus aureus ATCC 6538, Staphylococcus epidermidis ATCC 12228, Enterococcus faecalis ATCC 29212, Listeria monocytogenes ATCC 19115, Bacillus subtilis ATCC 6633), and one strain (Bacillus cereus ŁOCK 0807) obtained from the Pure Culture of Industrial Microorganisms of the Institute of Fermentation Technology and Microbiology ŁOCK 105 (Łódź, Poland).
(§3) The microorganism cultures with a density of 1.5 × 10^8 CFU mL^−1 (corresponding to a McFarland standard of 0.5) were plated on Mueller–Hinton Agar (Merck, Germany) following the procedures recommended by the European Committee on Antimicrobial Susceptibility Testing (EUCAST).[47] Wells measuring 10 mm in diameter were cut into the medium. The tested compounds were dissolved in a DMSO solution, which was recommended due to their chemical structures. Subsequently, 100 μL of prepared solutions containing the tested compounds at concentrations ranging from x μg mL^−1 to x μg mL^−1 were added to each well. The plates were incubated at 30 °C (for Bacillus subtilis and Bacillus cereus) or 37 °C (for other bacteria) for 18 hours. After incubation, the minimum inhibitory concentration (MIC value) was determined (the lowest concentration of the tested compounds that prevents bacterial growth) and expressed in μg mL^−1. The experiment was conducted in three independent replicates. Ciprofloxacin (Sigma Aldrich, Saint Louis, MO, USA) was used as a reference antimicrobial agent against Gram-negative bacteria, while vancomycin (Sigma Aldrich, Saint Louis, MO, USA) was used as a reference antimicrobial agent against Gram-positive bacteria.

[2] = tested on: Bacillus subtilis ATCC 6633; test: MIC determination; assay type: cell-based; details: 18 h
Procedure: as §1, §2, §3

[3] = tested on: Enterococcus faecalis ATCC 29212; test: MIC determination; assay type: cell-based; details: E. faecalis ATCC 29212; 18 h
Procedure: as §1, §2, §3

[4] = tested on: Escherichia coli ATCC 10530; test: MIC determination; assay type: cell-based
Procedure: as §1, §2, §3

[5] = tested on: Listeria monocytogenes ATCC 19115; test: MIC determination; assay type: cell-based
Procedure: as §1, §2, §3

[6] = tested on: Salmonella typhimurium ATCC 14028; test: MIC determination; assay type: cell-based; details: S. typhimurium ATCC 14028; 18 h
Procedure: as §1, §2, §3

[7] = tested on: Staphylococcus aureus ATCC 25923; test: MIC determination; assay type: cell-based; details: S. aureus ATCC 25923, 18 h
Procedure: as §1, §2, §3

[8] = tested on: Staphylococcus aureus ATCC 6538; test: MIC determination; assay type: cell-based; details: S. aureus ATCC 6538; 18 h
Procedure: as §1, §2, §3

[9] = tested on: Staphylococcus epidermidis ATCC 12228; test: MIC determination; assay type: cell-based; details: S. epidermidis ATCC 12228; 18 h
Procedure: as §1, §2, §3

S. aureus ATCC 25923 = test: Diffusion-well method, inhibition zones; assay type: cell-based, Staphylococcus aureus; details: 500 µg/mL, wells 10 mm
Procedure: as §1
(§4) 24 hour bacterial cultures with a density of 1–2 × 10^8 CFU mL^−1 were plated (0.1 mL) on Mueller–Hinton Agar (Merck, Germany). Subsequently, wells with a diameter of 10 mm were cut out from and filled with 100 μL of the tested compound at a concentration of 10–500 μg mL^−1 (diluted in DMSO). After an 18-hour incubation at either 30 °C (for Bacillus ssp.) or 37 °C (for other tested microorganisms), the inhibition zones around the wells were measured, and the results were expressed in millimetres (Table S9 ^†).

S. aureus ATCC 6538 = test: Diffusion-well method, inhibition zones; assay type: cell-based, Staphylococcus aureus; details: 500 µg/mL, wells 10 mm
Procedure: as §1, §4

E. faecalis ATCC 29212 = test: Diffusion-well method, inhibition zones; assay type: cell-based, Enterococcus faecalis; details: 500 µg/mL, wells 10 mm
Procedure: as §1, §4

B. cereus ŁOCK 0807 = test: Diffusion-well method, inhibition zones; assay type: cell-based, Bacillus cereus; details: 500 µg/mL, wells 10 mm
[10] = tested on: L. monocytogenes ATCC 19115; test: Diffusion-well method, inhibition zones; assay type: cell-based, Listeria monocytogenes; details: 500 µg/mL, wells 10 mm
Procedure: as §1, §4

B. subtilis ATCC 6633 = test: Diffusion-well method, inhibition zones; assay type: cell-based, Bacillus subtilis; details: 500 µg/mL, wells 10 mm
Procedure: as §1, §4

E. coli ATCC 10530 = test: Diffusion-well method, inhibition zones; assay type: cell-based, Escherichia coli; details: 500 µg/mL, wells 10 mm
Procedure: as §1, §4

[11] = tested on: S. Typhimurium ATCC 14028; test: Diffusion-well method, inhibition zones; assay type: cell-based, Salmonella typhimurium; details: 500 µg/mL, wells 10 mm
Procedure: as §1, §4

[12] = tested on: glioblastoma LN-229 cells; test: MTT cell viability assay; assay type: cell-based, human; details: 48 hours of incubation
Procedure: (§5) The glioblastoma cell lines LN-229 and U87 and the reference human normal skin fibroblast BJ were obtained from the American Type Culture Collection (ATCC). Cells were grown as monolayers when cultured in cell culture flasks and cultured in Dulbecco's Modified Eagle Medium (DMEM) – LN-229 and Eagle's Minimum Essential Medium (EMEM) – U87 and BJ, supplemented with 10% (v/v) fetal bovine serum, penicillin (10 000 U mL^−1), streptomycin (10 mg mL^−1) and amphotericin B (250 μg mL^−1). The cells were incubated at 37 °C, 5% CO2 atmosphere. The cells were maintained in the logarithmic growth phase by regular passage at 80% confluence.
(§6) The cytotoxicity of the tested compounds was evaluated against both human glioblastoma LN-229 and U-87 as well as normal BJ cell lines. The cells were plated in 96-well culture plates (2 × 10^4 well) and after 24 h incubation the cells were treated with the tested compounds in the concentration range 1–50 μM. The cells were cultured for the next 48 h. The cytotoxicity of the compounds was evaluated using the MTT colorimetric method as previously described.[28,29] IC50 values were determined using the AAT Bioquest IC50 calculator as the concentration of compounds capable of reducing cell viability by 50%. The experiment was performed in triplicate for each concentration. To examine the cytotoxic effect of compounds on cell morphology, cells were examined under an inverted phase contrast microscope Nikon Eclipse Ti with NIS Element software (Tokyo, Japan).

glioblastoma U87 cells = test: MTT cell viability assay; assay type: cell-based, human; details: 48 hours of incubation
Procedure: as §5, §6

[13] = tested on: normal skin fibroblast BJ cells; test: MTT cell viability assay; assay type: cell-based, human; details: BJ normal fibroblasts, 48 hours of incubation
Procedure: as §5, §6

[14] = tested on: S. epidermidis ATCC 12228; test: Diffusion-well method, inhibition zones; assay type: cell-based, Staphylococcus epidermidis; details: 500 µg/mL, wells 10 mm
Procedure: as §1, §4

[15] = tested on: Staphylococcus aureus ATCC 25923; design: method as in earlier work; details: pure ligands, S. aureus ATCC 25923; previous study ref 29; cited from earlier work
[16] = tested on: Staphylococcus epidermidis ATCC 12228; design: method as in earlier work; details: pure ligands, S. epidermidis ATCC 12228; previous study ref 29; cited from earlier work
[17] = tested on: Enterococcus faecalis ATCC 29212; design: method as in earlier work; details: pure ligands, E. faecalis ATCC 29212; previous study ref 29; cited from earlier work
[18] = tested on: Salmonella typhimurium ATCC 14028; design: method as in earlier work; details: pure ligands, S. typhimurium ATCC 14028; previous study ref 29; cited from earlier work
[19] = Escherichia coli ATCC 10530, 18 h
[20] = Listeria monocytogenes ATCC 19115, 18 h

Structure (SMILES) | MIC [1] [µg/mL] | MIC [2] [µg/mL] | MIC [3] [µg/mL] | MIC [4, 19] [µg/mL] | MIC [5, 20] [µg/mL] | MIC [6] [µg/mL] | MIC [7] [µg/mL] | MIC [8] [µg/mL] | MIC [9] [µg/mL] | Inhibition zone (S. aureus ATCC 25923) [mm] | Inhibition zone (S. aureus ATCC 6538) [mm] | Inhibition zone (E. faecalis ATCC 29212) [mm] | Inhibition zone (B. cereus ŁOCK 0807) [mm] | IC50 ([12]; Homo sapiens) [µM] | IC50 (glioblastoma U87 cells; Homo sapiens, U-87 MG) [µM] | IC50 ([13]; Homo sapiens) [µM] | MIC [15] [µg/mL] | MIC [16] [µg/mL] | MIC [17] [µg/mL] | MIC [18] [µg/mL] | further results
NC(=NN=Cc1ccc([N+](=O)[O-])cc1)c1cccc(Cl)n1.O=[N+]([O-])[O-].[Ag+] [Complex 2, AgL2NO3] | 50 | 50 | 50 | 10 | 10 | 50 | 50 | 50 | > 500 | 19 | 22 | 14 | 18 |  |  |  |  |  |  |  | MIC ([4]; Escherichia coli): 10 µg/mL; MIC ([5]; Listeria monocytogenes): 10 µg/mL; Inhibition zone [10]: 19 mm; Inhibition zone (B. subtilis ATCC 6633): 16 mm; Inhibition zone (E. coli ATCC 10530): 20 mm; Inhibition zone [11]: 19 mm; IC50 [12]: 37.2 ± 6.55 µM; IC50 (glioblastoma U87 cells): > 50 µM; IC50 [13]: 14.5 ± 2.82 µM
NC(=NN=Cc1ccc([N+](=O)[O-])cc1)c1cccc(N2CCCC2)n1.NC(=NN=Cc1ccc([N+](=O)[O-])cc1)c1cccc(N2CCCC2)n1.O=[N+]([O-])[O-].[Ag+] [Complex 4, AgL4NO3] | 50 | 50 | 50 | ≤ 10 | ≤ 10 | 100 | ≤ 10 | 100 | 50 | 21 | 16 | 15 | 17 |  |  |  |  |  |  |  | MIC ([4]; Escherichia coli ATCC 10530, 18 h, listed as 4): < 10 µg/mL; MIC ([5]; Listeria monocytogenes ATCC 19115, 18 h, listed as 4): 10 µg/mL; MIC ([7]; listed as 4): <10 µg/mL; Inhibition zone [14]: 16 mm; Inhibition zone [10]: 19 mm; Inhibition zone (B. subtilis ATCC 6633): 18 mm; Inhibition zone (E. coli ATCC 10530): 20 mm; Inhibition zone [11]: 17 mm; IC50 [12]: > 50 µM; IC50 (glioblastoma U87 cells): 1.22 ± 0.34 µM; IC50 [13]: > 50 µM
NC(=NN=Cc1ccccc1)c1cncc(N2CCOCC2)n1.O.O=[N+]([O-])[O-].[Ag+] [Complex 5, AgL5NO3 × H2O] | 50 | 50 | 50 | > 500 | 10 | 50 | 50 | 10 | <10 | 19 | 17 | 17 | 19 |  |  |  |  |  |  |  | Inhibition zone [14]: 18 mm; Inhibition zone [10]: 19 mm; Inhibition zone (B. subtilis ATCC 6633): 18 mm; Inhibition zone [11]: 17 mm; IC50 [12]: > 50 µM; IC50 (glioblastoma U87 cells): 49.7 ± 3.11 µM; IC50 [13]: > 50 µM
NC(=NN=Cc1ccccc1)c1cncc(Cl)n1 [Complex L1, N′-(benzylidene)-6-chloropyrazine-2-carbohydrazonamide] |  |  |  |  |  |  |  |  |  |  |  |  |  | > 50 | > 50 | > 50 | 500 | 500 | 250 | >500 | 
N/C(=N\N=C\c1ccc([N+](=O)[O-])cc1)c1cccc(N2CCCC2)n1 [Complex L4, (4-nitrobenzylidene)-6-(pyrrolidin-1-yl)picolinohydrazonamide] |  |  |  |  |  |  |  |  |  |  |  |  |  | 48.1 ± 6.09 | > 50 | > 50 | >500 | >500 | >500 | >500 | 
N/C(=N\N=C\c1ccccc1)c1cncc(N2CCOCC2)n1 [Complex L5, (benzylidene)-6-morpholinopyrazine-2-carbohydrazonamide] |  |  |  |  |  |  |  |  |  |  |  |  |  | > 50 | > 50 | > 50 | >500 | >500 | >500 | >500 | 
N/C(=N\N=C\c1ccccc1)c1cncc(N2CCCC2)n1 [Complex L6, (benzylidene)-6-(pyrrolidin-1-yl)pyrazine-2-carbohydra-zonamide] |  |  |  |  |  |  |  |  |  |  |  |  |  | > 50 | > 50 | 42.4 ± 6.17 | 500 | 500 | 500 | 500 | 
